{"source": "patent US10882860B2", "about": "“Treatment of osteoarthritis” (Samumed, LLC, priority 2015, dated 2021)", "key": {"[1]": {"system": "Wnt activity (Sp5-Luc reporter, SW480 colon carcinoma cells)", "assay": "Sp5-Luc Wnt reporter gene assay", "assay_type": "cell-based", "conditions": "Homo sapiens, FIG. 14", "excerpt": "The compound of Formula (I) was screened for Wnt activity. The screening assay is described as follows. Reporter cell lines were generated by stably transducing cancer cell lines (e.g., colon cancer) or primary cells (e.g., IEC-6 intestinal cells) with a lentiviral construct that included a Wnt-responsive promoter driving expression of the firefly luciferase gene.\nSW480 colon carcinoma cells were transduced with a lentiviral vector expressing luciferase with a human Sp5 promoter consisting of a sequence of eight TCF/LEF binding sites. SW480 cells stably expressing the Sp5-Luc reporter gene and a hygromycin resistant gene were selected by treatment with 150 μg/mL of hygromycin for 7 days. These stably transduced SW480 cells were expanded in cell culture and used for all further screening activities. […] Following incubation, 20 μL of BrightGlo luminescence reagent (Promega) was added to each well of the 384-well assay plates. The plates were placed on an orbital shaker for 2 min and then luminescence was quantified using the Envision (Perkin Elmer) plate reader. Readings were normalized to DMSO-only treated cells, and normalized activities were utilized for EC50 calculations using the dose-response log (inhibitor) vs. response—variable slope (four parameters) nonlinear regression feature available in GraphPad Prism 5.0 (or Dotmatics)."}, "[2]": {"assay": "Rat pharmacokinetics after IA injection (plasma, knee joint)", "assay_type": "in vivo, Sprague Dawley rats", "conditions": "for concentration at 30 day / concentration at 90 day / concentration at 180 day: Sprague Dawley; for concentration at 30 day / concentration at 90 day / concentration at 180 day / Formula (I) concentration, Bone / Formula (I) concentration, Cartilage / Formula (I) concentration, Plasma: rats, single IA; for Formula (I) concentration, Plasma: QL = 5 ng/mL", "method": "In rats and dogs, the pharmacokinetic profile, safety profile, tissue distribution and cartilage regeneration following a single intra-articular (IA) injection of the compound of Formula (I) in the plasma and the knee joint (cartilage and bone) was determined. The compound of Formula (I) (Form 1) was formulated as a suspension composition in 0.5% CMC/0.05% Polysorbate 80 in PBS.\nThe pharmacokinetics of the compound of Formula (I) in rats was studied. Three Sprague Dawley rats were each injected with a single intra-articular (IA) injection (one IA injection per knee) of a suspension composition of the compound of Formula (I) (Form 1) at 0.3, 1, 3 and 9 μg/knee. Plasma was collected beginning at 15 minutes post-dose on Day 1 and the knee joint was collected at Days 30, 90, and 180 post-IA administration. The bone and cartilage tissues from the knee joint were segregated and concentrations analyzed. The compound was retained in the knee joint above the target concentration level (˜30 nM, the intended clinical therapeutic dose) for greater than 180 days and was undetectable in the plasma at all time points."}, "[3]": {"design": "species or system beagle dogs", "conditions": "dog, in vivo", "method": "The local toxicology of Form 1 of the compound of Formula (I) in dogs was studied. The compound of Formula (I) (Form 1) was administered via single or multiple (9 times) intra-articular (IA) injections as a suspension composition in beagle dogs to evaluate local toxicity.\nAfter IA injection, the right stifle joint was histologically evaluated for inflammation, cartilage health, bone density, etc. Toxicology was evaluated immediately after a single or multiple (3 or 9 once-monthly) IA injections.\nThe NOAEL for the compound of Formula (I) in this study was considered to be 116 μg/knee."}}, "note": "Read-outs that look alike come from different tables or passages of the source."}
{"smiles": "CC(C)CC(=O)Nc1cncc(-c2ccc3[nH]nc(-c4nc5c(-c6cccc(F)c6)cncc5[nH]4)c3c2)c1", "note": "[compound of Formula (I)]", "values": [{"measurement": "EC50", "setting": "[1]", "value": 2, "unit": "nM"}, {"measurement": "concentration at 30 day", "setting": "[2]; rat, bone, other: intra-articular injection, 1 μg/knee, Day 30, read-out: Formula (I) concentration, Bone", "value": 196, "unit": "ng/g"}, {"measurement": "concentration at 90 day", "setting": "[2]; rat, bone, other: intra-articular injection, 1 μg/knee, Day 90, read-out: Formula (I) concentration, Bone", "value": 44.4, "unit": "ng/g"}, {"measurement": "concentration at 180 day", "setting": "[2]; rat, bone, other: intra-articular injection, 1 μg/knee, Day 180, read-out: Formula (I) concentration, Bone", "value": 46.4, "unit": "ng/g"}, {"measurement": "concentration at 30 day", "setting": "[2]; rat, bone, other: intra-articular injection, 3 μg/knee, Day 30, read-out: Formula (I) concentration, Bone", "value": 738, "unit": "ng/g"}, {"measurement": "concentration at 90 day", "setting": "[2]; rat, bone, other: intra-articular injection, 3 μg/knee, Day 90, read-out: Formula (I) concentration, Bone", "value": 166, "unit": "ng/g"}, {"measurement": "concentration at 180 day", "setting": "[2]; rat, bone, other: intra-articular injection, 3 μg/knee, Day 180, read-out: Formula (I) concentration, Bone", "value": 15, "unit": "ng/g"}, {"measurement": "concentration at 30 day", "setting": "[2]; rat, bone, other: intra-articular injection, 9 μg/knee, Day 30, read-out: Formula (I) concentration, Bone", "value": 3290, "unit": "ng/g"}, {"measurement": "concentration at 180 day", "setting": "[2]; rat, bone, other: intra-articular injection, 9 μg/knee, Day 180, read-out: Formula (I) concentration, Bone", "value": 67, "unit": "ng/g"}, {"measurement": "concentration at 30 day", "setting": "[2]; rat, bone, other: intra-articular, 0.3 μg/knee, Day 30, read-out: Formula (I) concentration, Bone", "value": 25.8, "unit": "ng/g"}, {"measurement": "concentration at 90 day", "setting": "[2]; rat, bone, other: intra-articular, 0.3 μg/knee, Day 90, read-out: Formula (I) concentration, Bone", "value": 6.56, "unit": "ng/g"}, {"measurement": "concentration at 180 day", "setting": "[2]; rat, bone, other: intra-articular, 0.3 μg/knee, Day 180, read-out: Formula (I) concentration, Bone", "value": 19, "unit": "ng/g"}, {"measurement": "concentration at 30 day", "setting": "[2]; rat, cartilage, other: intra-articular injection, 0.3 μg/knee, Day 30, read-out: Formula (I) concentration, Cartilage", "value": 263, "unit": "ng/g"}, {"measurement": "concentration at 90 day", "setting": "[2]; rat, cartilage, other: intra-articular injection, 0.3 μg/knee, Day 90, read-out: Formula (I) concentration, Cartilage", "value": 78, "unit": "ng/g"}, {"measurement": "concentration at 180 day", "setting": "[2]; rat, cartilage, other: intra-articular injection, 0.3 μg/knee, Day 180, read-out: Formula (I) concentration, Cartilage", "value": 69.6, "unit": "ng/g"}, {"measurement": "concentration at 30 day", "setting": "[2]; rat, cartilage, other: intra-articular injection, 3 μg/knee, Day 30, read-out: Formula (I) concentration, Cartilage", "value": 2570, "unit": "ng/g"}, {"measurement": "concentration at 90 day", "setting": "[2]; rat, cartilage, other: intra-articular injection, 3 μg/knee, Day 90, read-out: Formula (I) concentration, Cartilage", "value": 645, "unit": "ng/g"}, {"measurement": "concentration at 180 day", "setting": "[2]; rat, cartilage, other: intra-articular injection, 3 μg/knee, Day 180, read-out: Formula (I) concentration, Cartilage", "value": 717, "unit": "ng/g"}, {"measurement": "concentration at 30 day", "setting": "[2]; rat, cartilage, other: intra-articular injection, 9 μg/knee, Day 30, read-out: Formula (I) concentration, Cartilage", "value": 3560, "unit": "ng/g"}, {"measurement": "concentration at 180 day", "setting": "[2]; rat, cartilage, other: intra-articular injection, 9 μg/knee, Day 180, read-out: Formula (I) concentration, Cartilage", "value": 224, "unit": "ng/g"}, {"measurement": "concentration at 30 day", "setting": "[2]; rat, cartilage, other: intra-articular, 1 μg/knee, Day 30, read-out: Formula (I) concentration, Cartilage", "value": 39, "unit": "ng/g"}, {"measurement": "concentration at 90 day", "setting": "[2]; rat, cartilage, other: intra-articular, 1 μg/knee, Day 90, read-out: Formula (I) concentration, Cartilage", "value": 243, "unit": "ng/g"}, {"measurement": "concentration at 180 day", "setting": "[2]; rat, cartilage, other: intra-articular, 1 μg/knee, Day 180, read-out: Formula (I) concentration, Cartilage", "value": 201, "unit": "ng/g"}, {"measurement": "plasma level", "setting": "[2]; rat, all time points", "value": "undetectable"}, {"measurement": "time retained in the knee joint above the target concentration level (˜30 nM)", "setting": "[2]; rat, single IA 0.3, 1, 3 and 9 μg/knee", "value": "greater than 180 days"}, {"measurement": "Formula (I) concentration, Bone", "setting": "[2]; 0.3 μg/knee, Day 30", "value": "[51 nM]"}, {"measurement": "Formula (I) concentration, Cartilage", "setting": "[2]; 0.3 μg/knee, Day 30", "value": "[521 nM]"}, {"measurement": "Formula (I) concentration, Plasma", "setting": "[2]; 0.3 μg/knee, Day 30", "value": "BQL"}, {"measurement": "Formula (I) concentration, Bone", "setting": "[2]; 0.3 μg/knee, Day 90", "value": "[13 nM]"}, {"measurement": "Formula (I) concentration, Cartilage", "setting": "[2]; 0.3 μg/knee, Day 90", "value": "[154 nM]"}, {"measurement": "Formula (I) concentration, Plasma", "setting": "[2]; 0.3 μg/knee, Day 90", "value": "BQL"}, {"measurement": "Formula (I) concentration, Bone", "setting": "[2]; 0.3 μg/knee, Day 180", "value": "[38 nM]"}, {"measurement": "Formula (I) concentration, Cartilage", "setting": "[2]; 0.3 μg/knee, Day 180", "value": "[138 nM]"}, {"measurement": "Formula (I) concentration, Plasma", "setting": "[2]; 0.3 μg/knee, Day 180", "value": "BQL"}, {"measurement": "Formula (I) concentration, Bone", "setting": "[2]; 1 μg/knee, Day 30", "value": "[388 nM]"}, {"measurement": "Formula (I) concentration, Cartilage", "setting": "[2]; 1 μg/knee, Day 30", "value": "[774 nM]"}, {"measurement": "Formula (I) concentration, Plasma", "setting": "[2]; 1 μg/knee, Day 30", "value": "BQL"}, {"measurement": "Formula (I) concentration, Bone", "setting": "[2]; 1 μg/knee, Day 90", "value": "[88 nM]"}, {"measurement": "Formula (I) concentration, Cartilage", "setting": "[2]; 1 μg/knee, Day 90", "value": "[481 nM]"}, {"measurement": "Formula (I) concentration, Plasma", "setting": "[2]; 1 μg/knee, Day 90", "value": "BQL"}, {"measurement": "Formula (I) concentration, Bone", "setting": "[2]; 1 μg/knee, Day 180", "value": "[92 nM]"}, {"measurement": "Formula (I) concentration, Cartilage", "setting": "[2]; 1 μg/knee, Day 180", "value": "[398 nM]"}, {"measurement": "Formula (I) concentration, Plasma", "setting": "[2]; 1 μg/knee, Day 180", "value": "BQL"}, {"measurement": "Formula (I) concentration, Bone", "setting": "[2]; 3 μg/knee, Day 30", "value": "[1461 nM]"}, {"measurement": "Formula (I) concentration, Cartilage", "setting": "[2]; 3 μg/knee, Day 30", "value": "[5097 nM]"}, {"measurement": "Formula (I) concentration, Plasma", "setting": "[2]; 3 μg/knee, Day 30", "value": "BQL"}, {"measurement": "Formula (I) concentration, Bone", "setting": "[2]; 3 μg/knee, Day 90", "value": "[329 nM]"}, {"measurement": "Formula (I) concentration, Cartilage", "setting": "[2]; 3 μg/knee, Day 90", "value": "[1277 nM]"}, {"measurement": "Formula (I) concentration, Plasma", "setting": "[2]; 3 μg/knee, Day 90", "value": "BQL"}, {"measurement": "Formula (I) concentration, Bone", "setting": "[2]; 3 μg/knee, Day 180", "value": "[313 nM]"}, {"measurement": "Formula (I) concentration, Cartilage", "setting": "[2]; 3 μg/knee, Day 180", "value": "[1420 nM]"}, {"measurement": "Formula (I) concentration, Plasma", "setting": "[2]; 3 μg/knee, Day 180", "value": "BQL"}, {"measurement": "Formula (I) concentration, Bone", "setting": "[2]; 9 μg/knee, Day 30", "value": "[6520 nM]"}, {"measurement": "Formula (I) concentration, Cartilage", "setting": "[2]; 9 μg/knee, Day 30", "value": "[7055 nM]"}, {"measurement": "Formula (I) concentration, Plasma", "setting": "[2]; 9 μg/knee, Day 30", "value": "BQL"}, {"measurement": "Formula (I) concentration, Plasma", "setting": "[2]; 9 μg/knee, Day 90", "value": "BQL"}, {"measurement": "Formula (I) concentration, Bone", "setting": "[2]; 9 μg/knee, Day 180", "value": "[1335 nM]"}, {"measurement": "Formula (I) concentration, Cartilage", "setting": "[2]; 9 μg/knee, Day 180", "value": "[4437 nM]"}, {"measurement": "Formula (I) concentration, Plasma", "setting": "[2]; 9 μg/knee, Day 180", "value": "BQL"}, {"measurement": "NOAEL", "setting": "[3]", "value": 116, "unit": "μg/knee"}]}
